According to paper PMC4919791, “Effect of curcumin analogs onα-synuclein aggregation and cytotoxicity” (Scientific Reports, 2016):
Entries after “also recorded” stand apart in the source; their conditions may differ.

Columns and labels:
[1] = target: T1, α-Syn oligomers (Homo sapiens, UniProt P37840); assay: Binding affinity to α-Syn oligomers by curcumin analog fluorescence; details: compound fluorescence; read-out: dissociation constant (Kd) for α-Syn oligomers
T1 construct: made in house; host or cells: Escherichia coli BL21
Description: Immediately after incubation, fluorescence study was performed (for the excitation and emission ranges for each compounds, see Fig. S1). Experiments were performed using FluoroMax-4 spectrofluorometer (HORIBA JobinYvon) with excitation and emission slit widths of 5 nm.
The data were analyzed in Graphpad Prism software according to established method as used previously.

[2] = target: T2, preformed α-Syn fibrils (Homo sapiens, UniProt P37840); assay: Calcein-AM/EthD-1 staining, preformed α-Syn fibrils with analogs; assay type: cell-based; details: SH-SY5Y cells
T2 construct: made in house; host or cells: Escherichia coli BL21
Description: Previously it has been shown that curcumin decreases the toxicity of α-Syn amyloid fibrils by reducing the exposed hydrophobic surfaces. To delineate whether curcumin analogs can decrease the toxicity of preformed α-Syn fibrils, we performed cell viability assay. For this, 10-days incubated α-Syn solution was centrifuged (fibril formation was confirmed by electron microscopy (EM)) and the pelleted fibrils were then re-dissolved in same volume of 20 mM MES buffer (pH 6.0, 0.01% NaN3). The concentration of the fibrils was determined by subtraction of supernatant concentration from the original concentration of α-Syn kept for fibrillation. […] After incubation, we measured the effect of curcumin analogs on the toxicity of preformed α-Syn amyloid fibrils by MTT reduction assay on SH-SY5Y cells. […]
For this assay, SH-SY5Y cells were seeded in 96 well plate and incubated with identical concentrations of oligomers/fibrils (as used in MTT assay) in absence and presence of curcumin and its analogs for 36 h in 5% CO2 incubator at 37 °C. […] Calcein-AM/Ethidium homodimer-1 signal was then checked and imaged with an inverted fluorescence microscope (Leica DMi8). […] The free calcein emits strong fluorescence signal at ~535 nm, which could be easily observed in the green channel of a microscope. […]

[3] = target: T3, α-Syn (Homo sapiens, UniProt P37840); assay: α-Syn aggregation kinetics by compound fluorescence; assay type: biochemical; details: in presence of analog
T3 construct: made in house; host or cells: Escherichia coli BL21
Description: ThT fluorescence was used to monitor the aggregation kinetics of α-Syn only as a control.
Subsequently, we examined the effect of these analogs on α-Syn oligomerization by time dependent static light scattering experiment. […] After aggregation, TEM study was done to determine the effects of these analogs on the morphology of the resultant aggregates.
The α-Syn amyloid aggregation was started with LMW α-Syn of concentration ~300 μM in 1.5 ml microfuge tube in 20 mM MES buffer, pH 6.0, with 0.01% NaN3. […] The microfuge tubes with protein solutions were placed into Echo-Therm model RT11 vertical rotor (Torrey Pines Scientific, USA) with a speed of 50 rpm, at 37 °C inside an incubator.
The experiments were performed in FluoroMax-4 spectrofluorometer (HORIBA JobinYvon) with excitation and emission slit widths of 5 nm. Fluorescence was done in 20 mM MES buffer (pH 6.0, 0.01% NaN3).

[4] = target: T1, α-Syn oligomers; assay: TEM of α-Syn oligomers with C1/C6; assay type: biochemical
From the text: (§1) It has been shown that α-Syn mutants that form oligomers preferentially are more toxic and kill dopaminergic neurons in animal models as compared to fibril forming mutants. Therefore, compounds that effectively reduce the toxicity of oligomers could be beneficial for the treatment of PD. In the present study, we tested the effect of curcumin and its analogs on the toxicity, hydrophobic exposure and morphology of α-Syn oligomers isolated using size exclusion chromatography (SEC). The toxicity of α-Syn oligomers in presence and absence of curcumin/analogs were initially tested using MTT assay. […] To further validate the effectiveness of C6 to reduce the cytotoxicity of α-Syn oligomers, we also performed LDH cytotoxicity assay and Calcein-AM/Ethidium homodimer-1 staining. […] As previously it has been proposed that curcumin reduces the oligomers toxicity by altering their exposed hydrophobic surface, we also measured the hydrophobic surface exposure of preformed α-Syn oligomers incubated with curcumin and its analogs.
5 μl of various species of α-Syn (50 μM) incubated in absence and presence of curcumin and its analogs were spotted on carbon coated formavar grid and air dried for 10 min. The samples were then washed thrice with autoclaved MQ. The samples were then stained with 10 μl of uranyl formate 1% (w/v) and incubated in dark for 10 min. […]

[5] = target: T1, α-Syn oligomers; assay: LDH cytotoxicity assay of α-Syn oligomers with C1/C6; assay type: cell-based; details: oligomers incubated 30 minutes with compound; SH-SY5Y cells
From the text: as §1
10 μM of α-Syn oligomers/fibrils incubated with and without 5 μM curcumin/analogs were added to SH-SY5Y cells (10,000 cells/well) in 96 well plate. […] The percent LDH release was plotted as difference in the absorbance value of 490 nm and 690 nm, considering 100% release for the TritonX-100 treated cells.

[6] = target: T4, preformed α-Syn amyloid fibrils (Homo sapiens, UniProt P37840); assay: TEM of preformed α-Syn fibrils with analogs; assay type: biochemical; details: after 48 h incubation with analog
T4 construct: made in house; host or cells: Escherichia coli BL21
Description: The samples were then washed thrice with autoclaved MQ. The samples were then stained with 10 μl of uranyl formate 1% (w/v) and incubated in dark for 10 min. The EM image of each sample was acquired at 120 kV with magnifications in the range of 26,000X and 43,000X using a transmission electron microscope (TECNAI12 D312 FEI, Netherlands).

COc1cc(/C=C/C(=O)CC(=O)/C=C/c2ccc(OCc3ccccc3)c(OC)c2)ccc1OCc1ccccc1 [C6]
Kd [1]: 16.1 ± 3.81 µM
Calcein-AM/EthD-1 staining with preformed α-Syn fibrils [2]: less nuclear staining by EthD-1
effect on rate/kinetics of α-Syn aggregation [3]: fastest; also recorded: significantly accelerated α-Syn aggregation kinetics
lag time of α-Syn aggregation ([3]; compound fluorescence, MES pH 6.0): 3.5 ± 0.5 h
morphology of α-Syn oligomers (TEM) [4]: significantly altered their morphology
LDH release with α-Syn oligomers [5]: reduced LDH release
fibril morphology/thickness of preformed α-Syn fibrils (TEM, words) [6]: clustering was more
